Measured values as given in US9364480B2, “Pharmaceutical composition for preventing or treating cancer, containing enoblock as active ingredient” (GWANGJU INSTITUTE OF SCIENCE AND TECHNOLOGY, priority 2012, dated 2016).
Blank lines part the entries; values can stand above or below the compound they belong to.

Experiments:
purified enolase = purified enolase (Schistosoma mansoni, UniProt Q27877); conditions: cited from earlier work
[1] = target: recombinant enolase from Schistosoma mansoni (Schistosoma mansoni, UniProt Q27877); conditions: cited from earlier work
[2] = target: T1, Enolase purified from rabbit muscle (Oryctolagus cuniculus, UniProt P25704); test: Enolase activity assay; type: biochemical; conditions: purified enolase
T1 construct: Enolase purified from rabbit muscle was purchased from Sigma-Aldrich; purchased Sigma-Aldrich; host or cells: rabbit muscle
Protocol: FIG. 4. […] (a) Affinity chromatography study for ENOblock in HCT116 cancer cells. […] (b) Sequence identification for the enolase monomer subunit. […] Mascot scores above 100 were deemed to be significant. […] Twenty micrograms of cell lysate from YD-10B oral cancer cells or Huh7 hepatocytes were used as positive controls. […] As a positive control, ENOblock affinity matrix was incubated with 200 μg of HCT 116 cell lysate; 50 μg cell lysate from HCT116 cancer cells was used as a positive control for the enolase antibody.
Enolase purified from rabbit muscle was purchased from Sigma-Aldrich. A single unit of enolase is defined as the amount of enzyme that produces 1 μmol of phosphoenol pyruvate from phospho-D-glycerate/min in standard assay.^52 Enolase activity assay was measured at 37° C. by incubating pure enolase (3-9 U) in a buffer containing 50 mM imidazole-HCl (pH 6.8)(JUNSEI), 2.0 mM MgSO4 (JUNSEI) and 400 mM KCl (JUNSEI) in the absence or presence of ENOblock or NaF (Sigma). The reaction was initiated by adding 1 μmol of 2-phospho-D-glycerate, and the OD was measured after 10 min of reaction time with a spectrophometer at 240 nm.

zebrafish larvae = test: Measurement of glucose uptake in zebrafish (2-NBDG); type: in vivo; conditions: 10 μg/mL
Protocol: FIG. 12. […] (a) Schematic of our approach to measure the effect of ENOblock treatment on […] in zebrafish.
At 72 hpf, larvae were placed into a 96-well plate (6 eggs/well in 200 μL E3 water supplemented with 0.2 mM 2-phenylthiourea; Sigma). Drug of interest was added for […]. The solution was then replaced with E3 water supplemented with 600 μM 2-NBDG and incubated for 3 h. The larva were washed with E3 water and anesthetized with 0.02% tricaine-supplemented E3 water. One larva was then placed on a chamber slide, containing 3% methylcellulose in E3 water, for fluorescent microscopy (Leica DM2500 microscope equipped with a DFC425 C digital camera). Images were captured at 50× magnification. The remaining 5 larvae where lysed with 120 μL of CelLytic M solution (Sigma-Aldrich) and sonication (4° C., 10″/5″ pulse, 10 min). Lysed larvae were centrifuged at 10000 rpm for 10 min. 100 μL of the supernatant was transferred to a 96-well plate and fluorescence was measured with a fluorescent microplate reader (SpectraMAX Gemini XS, Molecular Devices; λex=466 nm […]).

[3] = system: PEPCK expression in HEK cells; test: PEPCK expression in kidney cells; type: cell-based; conditions: 1 μg/mL, 24 h
From the text: FIG. 10. […] Error=SD; *=P<0.05 compared to the no drug (DMSO-treated) group. […] Error=SD; *=P<0.05 for reduced PEPCK expression compared to the no drug (DMSO-treated) group.

[4] = system: pre-adipocytes undergoing adipogenesis; test: Adipogenesis lipid accumulation (Oil Red O staining); type: cell-based; conditions: without adipogenesis-inducing factors

T1 sequence (P25704 whole entry): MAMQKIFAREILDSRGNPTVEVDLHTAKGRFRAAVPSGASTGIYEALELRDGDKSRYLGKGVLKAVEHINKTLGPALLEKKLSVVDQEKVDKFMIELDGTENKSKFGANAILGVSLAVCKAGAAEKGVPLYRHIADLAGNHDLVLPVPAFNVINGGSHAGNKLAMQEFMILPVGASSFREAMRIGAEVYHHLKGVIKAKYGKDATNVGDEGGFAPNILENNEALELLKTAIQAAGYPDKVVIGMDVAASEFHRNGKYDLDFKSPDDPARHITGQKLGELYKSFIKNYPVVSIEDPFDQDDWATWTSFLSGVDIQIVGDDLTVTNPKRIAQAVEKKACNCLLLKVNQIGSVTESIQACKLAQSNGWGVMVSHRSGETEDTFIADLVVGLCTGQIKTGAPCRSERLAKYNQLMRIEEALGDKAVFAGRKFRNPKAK
Sequence of recombinant enolase from Schistosoma mansoni (Q27877 whole entry): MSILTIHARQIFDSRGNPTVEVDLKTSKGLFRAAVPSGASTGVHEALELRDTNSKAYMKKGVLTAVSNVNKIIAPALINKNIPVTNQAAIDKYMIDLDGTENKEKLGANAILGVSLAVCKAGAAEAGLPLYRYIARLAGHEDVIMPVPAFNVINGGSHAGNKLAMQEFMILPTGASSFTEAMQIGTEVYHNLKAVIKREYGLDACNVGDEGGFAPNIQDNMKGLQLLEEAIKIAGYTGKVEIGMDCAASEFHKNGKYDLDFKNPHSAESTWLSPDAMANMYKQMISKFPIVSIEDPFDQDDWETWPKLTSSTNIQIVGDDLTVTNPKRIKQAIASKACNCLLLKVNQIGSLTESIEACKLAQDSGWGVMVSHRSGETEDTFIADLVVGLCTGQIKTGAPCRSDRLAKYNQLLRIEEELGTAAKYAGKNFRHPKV
Sequence of purified enolase (Q27877 whole entry): as above

Compound: OC(c1cc(C(F)(F)F)nc2c(C(F)(F)F)cccc12)C1CCCCN1 (stereo not shown) [mefloquine]
inhibition of purified enolase activity (purified enolase): could not inhibit purified enolase activity | direct binding to recombinant enolase [1]: could not directly bind to recombinant enolase from this parasite

treatment concentration giving enolase activity level approximated by 2.5 μM ENOblock [2]: 1 mM
Compound: [F-].[Na+] [NaF, sodium fluoride, reference compound]

Compound: Cc1cc(O)c2c(c1)C(=O)c1cc(O)cc(O)c1C2=O [emodin, 6-methyl-1,3,8-trihydroxyanthraquinone, reference compound]
glucose uptake in larvae (2-NBDG fluorescence microscopy) (zebrafish larvae): enhanced glucose uptake in a similar but more intense pattern compared to the zebrafish treated with ENOblock | 2-NBDG fluorescence signal intensity in the eye (zebrafish larvae; 72 hpf larvae, 4 h, vs 2-NBDG alone): induced significantly greater fluorescent tagged glucose uptake in the zebrafish eye

Compound: insulin: insulin
PEPCK expression [3]: did not reduce PEPCK expression | lipid accumulation in preadipocytes (Oil Red O, microscopy) [4]: still induced lipid accumulation
